For orientation: Ki means the equilibrium dissociation constant of an inhibitor or competing ligand from its target. Read a low Ki as a stronger hold on the target.

Assay in all cases: PDE4 Enzyme Assay
Holding throughout (conditions): pH 8; 34 °C

The target in experiment [1] is cAMP-specific 3',5'-cyclic phosphodiesterase 4D (Homo sapiens, UniProt Q08499). As for the experimental part: (§1) The samples were assayed in a solution composed of PDE4, [3H]cAMP/cAMP, and test compounds. To convert AMP to adenosine, snake venom was added to each sample after reactions were stopped. The reaction products were separated by anion-exchange chromatography performed on AGl-X8 resin, and the amount of unbound [3H] adenosine was collected and quantified by scintillation counting.
Sequence of cAMP-specific 3',5'-cyclic phosphodiesterase 4D (Q08499 whole entry): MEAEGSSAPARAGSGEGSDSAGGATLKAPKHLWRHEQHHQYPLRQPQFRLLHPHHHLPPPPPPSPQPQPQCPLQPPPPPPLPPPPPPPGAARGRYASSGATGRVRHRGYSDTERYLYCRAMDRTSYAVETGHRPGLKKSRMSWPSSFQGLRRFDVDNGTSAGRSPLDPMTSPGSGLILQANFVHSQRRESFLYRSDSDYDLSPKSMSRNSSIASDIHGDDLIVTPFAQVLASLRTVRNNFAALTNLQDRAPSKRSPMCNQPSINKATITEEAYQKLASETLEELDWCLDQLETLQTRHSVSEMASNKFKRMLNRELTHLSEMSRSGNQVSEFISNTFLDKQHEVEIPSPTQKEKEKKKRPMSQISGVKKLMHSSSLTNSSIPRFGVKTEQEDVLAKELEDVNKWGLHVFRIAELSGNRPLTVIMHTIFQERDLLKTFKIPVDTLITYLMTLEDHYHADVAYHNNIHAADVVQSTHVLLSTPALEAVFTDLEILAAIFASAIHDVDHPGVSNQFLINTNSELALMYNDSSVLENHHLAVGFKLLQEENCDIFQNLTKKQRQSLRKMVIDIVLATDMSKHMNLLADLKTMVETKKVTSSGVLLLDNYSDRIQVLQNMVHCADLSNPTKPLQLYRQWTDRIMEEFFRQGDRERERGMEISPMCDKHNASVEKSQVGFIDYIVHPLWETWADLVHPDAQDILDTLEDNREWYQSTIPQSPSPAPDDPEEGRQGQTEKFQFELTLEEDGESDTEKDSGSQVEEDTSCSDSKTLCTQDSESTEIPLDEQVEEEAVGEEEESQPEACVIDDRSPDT

For experiment [2], the target named is cAMP-specific 3',5'-cyclic phosphodiesterase 4A (Homo sapiens, UniProt P27815). As to the method:
as §1

Experiment [3] concerns the target cAMP-specific 3',5'-cyclic phosphodiesterase 4B (Homo sapiens, UniProt Q07343). As for the experimental part:
as §1

Sequence of cAMP-specific 3',5'-cyclic phosphodiesterase 4A (P27815 whole entry): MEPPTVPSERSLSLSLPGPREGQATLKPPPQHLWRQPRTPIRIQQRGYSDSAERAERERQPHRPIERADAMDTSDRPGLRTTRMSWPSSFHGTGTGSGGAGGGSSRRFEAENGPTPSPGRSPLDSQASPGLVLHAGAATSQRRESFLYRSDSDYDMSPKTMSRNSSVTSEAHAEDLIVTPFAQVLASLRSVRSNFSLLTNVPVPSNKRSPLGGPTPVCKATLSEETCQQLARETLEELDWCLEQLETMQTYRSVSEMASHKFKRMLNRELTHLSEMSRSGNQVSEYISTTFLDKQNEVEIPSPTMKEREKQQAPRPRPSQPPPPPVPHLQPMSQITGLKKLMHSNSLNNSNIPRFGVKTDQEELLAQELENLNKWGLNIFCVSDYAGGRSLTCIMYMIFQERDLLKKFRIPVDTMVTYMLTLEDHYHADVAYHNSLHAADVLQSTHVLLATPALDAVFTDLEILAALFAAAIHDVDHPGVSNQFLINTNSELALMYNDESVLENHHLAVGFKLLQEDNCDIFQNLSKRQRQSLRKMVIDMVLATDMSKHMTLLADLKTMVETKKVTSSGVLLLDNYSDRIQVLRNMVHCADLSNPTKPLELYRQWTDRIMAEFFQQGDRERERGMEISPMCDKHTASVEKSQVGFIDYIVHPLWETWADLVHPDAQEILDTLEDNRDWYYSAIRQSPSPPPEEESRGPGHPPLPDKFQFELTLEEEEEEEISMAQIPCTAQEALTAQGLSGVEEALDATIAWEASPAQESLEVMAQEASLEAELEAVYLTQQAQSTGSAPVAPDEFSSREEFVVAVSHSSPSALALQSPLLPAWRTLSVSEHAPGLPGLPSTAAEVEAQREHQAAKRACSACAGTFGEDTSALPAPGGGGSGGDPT
Sequence of cAMP-specific 3',5'-cyclic phosphodiesterase 4B (Q07343 whole entry): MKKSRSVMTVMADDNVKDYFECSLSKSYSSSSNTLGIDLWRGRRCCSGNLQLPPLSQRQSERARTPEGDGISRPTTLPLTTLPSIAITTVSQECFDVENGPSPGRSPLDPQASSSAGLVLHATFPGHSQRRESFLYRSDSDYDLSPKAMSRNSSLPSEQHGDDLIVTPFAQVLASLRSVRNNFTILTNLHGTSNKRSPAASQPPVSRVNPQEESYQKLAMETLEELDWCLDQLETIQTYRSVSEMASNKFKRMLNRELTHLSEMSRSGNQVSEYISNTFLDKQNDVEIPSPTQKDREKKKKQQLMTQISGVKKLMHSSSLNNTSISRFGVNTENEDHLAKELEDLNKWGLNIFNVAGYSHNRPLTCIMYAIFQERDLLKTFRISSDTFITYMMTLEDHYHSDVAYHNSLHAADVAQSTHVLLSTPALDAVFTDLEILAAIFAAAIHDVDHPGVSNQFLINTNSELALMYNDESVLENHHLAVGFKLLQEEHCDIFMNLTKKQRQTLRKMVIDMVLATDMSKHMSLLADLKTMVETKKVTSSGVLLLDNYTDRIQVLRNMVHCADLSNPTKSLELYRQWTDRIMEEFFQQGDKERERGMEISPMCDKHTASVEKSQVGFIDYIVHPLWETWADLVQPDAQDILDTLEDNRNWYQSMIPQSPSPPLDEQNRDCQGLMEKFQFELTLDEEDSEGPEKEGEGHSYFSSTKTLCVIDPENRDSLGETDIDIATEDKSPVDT

With `COc1ccc(F)c(CCC2CCC(CCNCCCCCN3N=C(c4ccc(OC)c(OC)c4)C4CC=CCC4C3=O)O2)c1` (stereo not drawn) [phthalazinone, 21], the Ki is 2 nM in experiment [1], greater than 1000 nM in experiment [2] and 199 nM in experiment [3].

The record behind these values is BindingDB's records for doi:10.1021/jm8010993.
